Results reported in article doi:10.1101/767673v1 (bioRxiv, 2019).
Where a SMILES comes first, the peptide text is derived from it. Bridges are numbered along the chain shown (N, C = ends). [ ]: non-standard residue; d: D form. dPhe(4-CF3) = N[C@H](Cc1ccc(C(F)(F)F)cc1)C(=O)O; dTrp(6-F) = N[C@H](Cc1c[nH]c2cc(F)ccc12)C(=O)O; S8 = C=CCCCCCC[C@](C)(N)C(=O)O; R5 = C=CCCC[C@@](C)(N)C(=O)O

Assays:
[1] = molecular target: human Mdm2 protein (amino acids 1–125) (Homo sapiens, UniProt Q00987); experiment: Isothermal titration calorimetry; type: binding; conditions: PBS pH 7.2, 3% DMSO, 0.001% Tween-20, duplicates
Mdm4 = molecular target: T1, Mdm4 (Homo sapiens, UniProt O15151); experiment: Competitive fluorescence anisotropy / FP binding assay, Mdm4; conditions: FP competition assay
T1 sequence (O15151 1-490): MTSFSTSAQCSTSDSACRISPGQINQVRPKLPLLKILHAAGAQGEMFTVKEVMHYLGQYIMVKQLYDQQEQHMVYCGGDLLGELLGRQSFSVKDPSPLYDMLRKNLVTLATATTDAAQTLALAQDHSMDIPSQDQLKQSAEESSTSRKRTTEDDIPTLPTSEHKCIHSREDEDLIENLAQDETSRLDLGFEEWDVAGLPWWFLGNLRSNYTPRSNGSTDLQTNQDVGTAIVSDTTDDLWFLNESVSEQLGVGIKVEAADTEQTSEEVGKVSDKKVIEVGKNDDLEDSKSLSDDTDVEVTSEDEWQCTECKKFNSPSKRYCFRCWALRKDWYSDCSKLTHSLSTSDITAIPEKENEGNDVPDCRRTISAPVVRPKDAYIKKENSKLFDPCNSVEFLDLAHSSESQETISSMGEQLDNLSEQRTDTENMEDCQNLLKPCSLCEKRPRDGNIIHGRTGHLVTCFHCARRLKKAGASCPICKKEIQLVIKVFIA

Mdm2 (1-125) = Mdm2 (1-125) (Homo sapiens, UniProt Q00987); experiment: Competitive fluorescence anisotropy / FP binding assay, Mdm2; conditions: FP competition assay

SMILES	ITC enthalpy of binding (ΔH) to Mdm2 [1] [kcal/mol]	Binding to Mdm4 in the FP assay (Mdm4)	Binding to Mdm2 in the FP assay (Mdm2 (1-125))
CC(C)C[C@@H](NC(=O)[C@@H](CC(C)C)NC(=O)[C@@H](CCCCN)NC(=O)[C@@H](CCC(=O)O)NC(=O)[C@@H](Cc1ccc(C(F)(F)F)cc1)NC(=O)[C@@H](CC(N)=O)NC(=O)[C@@]1(C)CCCC=CCCC[C@@](C)(N)C(=O)N[C@H](C)C(=O)N[C@H](Cc2c[nH]c3cc(F)ccc23)C(=O)N[C@H](Cc2ccc(O)cc2)C(=O)N1)C(=O)N[C@H](CCCNC(=N)N)C(N)=O [^dPMI-δ(1-5)]	-15.8		
CC(C)C[C@@H](NC(=O)[C@@H](CC(C)C)NC(=O)[C@@]1(C)CCCC=CCCCCCC[C@](C)(NC(=O)[C@H](N)[C@H](C)O)C(=O)N[C@H](Cc2c[nH]c3cc(F)ccc23)C(=O)N[C@H](Cc2ccc(O)cc2)C(=O)N[C@H](C)C(=O)N[C@H](CC(N)=O)C(=O)N[C@H](Cc2ccc(C(F)(F)F)cc2)C(=O)N[C@H](CCC(=O)O)C(=O)N1)C(=O)N[C@H](CCCNC(=N)N)C(N)=O [^dPMI-δ(2-9)] (H-[dT][S8][dTrp(6-F)][dY][dA][dN][dPhe(4-CF3)][dE][R5][dL][dL][dR]-NH2; staple 2-9; N-terminus and C-terminus assumed)		displayed no binding	no binding
